This note sets out measurements from ChEMBL document CHEMBL1141921, “Phthalazinones. Part 1: The design and synthesis of a novel series of potent inhibitors of poly(ADP-ribose)polymerase” (Bioorg Med Chem Lett, 2005).

SMILES strings stand for the structures. Where only a bound is given, the exact number is not on record here.

Data set [1] concerns HeLa. Put plainly: Potentiation factor (ratio of the IC50 growth curve for the alkylating agent, methyl methanesulfonate (MMS) divided by the IC50 of the curve of MMS + PARP inhibitor) against human HeLa B cells at a concentration of 200 nM. It is filed as functional.
The nature of data set [2]: In vitro metabolic stability was measured in mouse liver microsomes. In kind it is ADME, Microsome.
Data set [3] concerns the target Poly [ADP-ribose] polymerase 1 (Homo sapiens, UniProt P09874). Put plainly: Inhibitory concentration against human poly (ADP-ribose) polymerase 1 (PARP-1).
The nature of data set [4]: In vitro metabolic stability was measured in human liver microsomes. In kind it is ADME, Microsome.

Poly [ADP-ribose] polymerase 1, sequence (P09874 whole entry): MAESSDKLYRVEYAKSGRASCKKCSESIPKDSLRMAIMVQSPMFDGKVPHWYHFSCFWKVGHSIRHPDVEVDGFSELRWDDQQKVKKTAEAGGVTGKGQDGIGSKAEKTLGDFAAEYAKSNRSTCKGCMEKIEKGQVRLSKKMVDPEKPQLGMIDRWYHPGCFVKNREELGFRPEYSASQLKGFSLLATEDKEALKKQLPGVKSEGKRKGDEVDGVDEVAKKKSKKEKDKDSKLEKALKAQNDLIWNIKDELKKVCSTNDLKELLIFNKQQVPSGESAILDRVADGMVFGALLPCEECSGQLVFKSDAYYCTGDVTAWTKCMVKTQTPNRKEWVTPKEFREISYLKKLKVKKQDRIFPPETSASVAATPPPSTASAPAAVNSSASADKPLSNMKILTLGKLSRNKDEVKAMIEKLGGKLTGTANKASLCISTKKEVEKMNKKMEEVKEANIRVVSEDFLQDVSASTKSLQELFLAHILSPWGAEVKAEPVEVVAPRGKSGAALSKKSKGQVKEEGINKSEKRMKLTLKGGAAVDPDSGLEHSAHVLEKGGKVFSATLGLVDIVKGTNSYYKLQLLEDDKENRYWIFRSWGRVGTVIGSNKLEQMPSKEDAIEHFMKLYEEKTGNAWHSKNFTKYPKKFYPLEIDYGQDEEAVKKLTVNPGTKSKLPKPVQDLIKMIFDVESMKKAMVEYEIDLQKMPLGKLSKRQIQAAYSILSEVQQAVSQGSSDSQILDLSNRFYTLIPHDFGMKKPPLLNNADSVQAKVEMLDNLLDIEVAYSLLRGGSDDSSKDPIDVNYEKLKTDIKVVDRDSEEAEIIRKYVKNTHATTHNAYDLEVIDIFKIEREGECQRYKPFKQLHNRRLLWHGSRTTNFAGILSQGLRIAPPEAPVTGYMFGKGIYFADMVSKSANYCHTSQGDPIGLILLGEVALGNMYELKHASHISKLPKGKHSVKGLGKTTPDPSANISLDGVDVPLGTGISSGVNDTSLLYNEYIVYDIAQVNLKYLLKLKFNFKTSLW

Turning to `CC1(C)CC(=O)N(c2cc(Cc3nnc(O)c4ccccc34)ccc2F)C1=O`, the PF50 in data set [1] amounted to 2.9.

What is called IC50 is the point on the concentration scale where inhibition reaches its midpoint. Higher therefore signals weaker potency in that assay. As to `CCNC(=O)c1cccc(Cc2n[nH]c(=O)c3ccccc23)c1`, the Cli in data set [2] is below 1 ml min-1 g-1 liver. The compound also had an IC50 in data set [3] of 0.05 µM.

Turning to `O=C(Nc1cccc(Cc2nnc(O)c3ccccc23)c1)C(F)(F)F`, the Cli in data set [2] is above 50 ml min-1 g-1 liver. In data set [3], the IC50 turned out to be 0.013 µM.

In turn, `CCS(=O)(=O)Nc1cccc(Cc2n[nH]c(=O)c3ccccc23)c1` showed an IC50 in data set [3] of 0.29 µM.

Turning to `CCOC(=O)Nc1cccc(Cc2nnc(O)c3ccccc23)c1`, the midpoint of inhibition in data set [3], the IC50, lay at 0.116 µM.

Compound `Cc1nc(-c2ccccc2)sc1C(=O)Nc1cccc(Cc2n[nH]c(=O)c3ccccc23)c1` registered an IC50 in data set [3] of 0.027 µM.

In data set [3], `O=C(Nc1cccc(Cc2n[nH]c(=O)c3ccccc23)c1)C1CC1` had a 50% inhibitory concentration (IC50) of 0.055 µM.

Compound `Cc1noc(-c2cccc(Cc3nnc(O)c4ccccc34)c2)n1` had an IC50 in data set [3] of 0.189 µM.

The compound `O=c1[nH]nc(Cc2ccccc2)c2ccccc12` returned a half-inhibitory concentration (IC50) in data set [3] of 0.77 µM.

Turning to `O=C1CCC(=O)N1c1cccc(Cc2n[nH]c(=O)c3ccccc23)c1`, the PF50 in data set [1] is reported as 1.74. In data set [4], this compound returned a Cli below 0.05 ml min-1 g-1 liver.

For `COc1ccc(-n2cc(C(=O)Nc3cccc(Cc4n[nH]c(=O)c5ccccc45)c3)c(C)n2)cc1`, the IC50 in data set [3] amounted to 0.01 µM.

For `CCCNC(=O)Nc1cccc(Cc2n[nH]c(=O)c3ccccc23)c1`, the IC50 in data set [3] worked out at 0.54 µM.

In data set [3], `O=C1c2ccccc2C(=O)N1c1cccc(Cc2n[nH]c(=O)c3ccccc23)c1` returned an IC50 of 0.18 µM.

As to `CC(C)C(=O)Nc1cccc(Cc2nnc(O)c3ccccc23)c1`, in data set [3], the IC50 is 0.37 µM.

For `O=C(Nc1cccc(Cc2nnc(O)c3ccccc23)c1)c1ccc(-n2cccn2)nc1`, the IC50 in data set [3] came out at 0.047 µM.

For `COc1ccc(Cc2n[nH]c(=O)c3ccccc23)cc1N1C(=O)CCC1=O`, the PF50 in data set [1] was determined as 1.5. This compound registered an IC50 in data set [3] of 0.033 µM.

Take `O=C1C=CC(=O)N1c1cccc(Cc2nnc(O)c3ccccc23)c1`: the PF50 in data set [1] stood at 0.94.

In the case of `CCC(=O)Nc1cccc(Cc2n[nH]c(=O)c3ccccc23)c1`, the Cli in data set [2] is 12 ml min-1 g-1 liver. This compound also registered an IC50 in data set [3] of 0.02 µM.

`O=C1CCCN1c1cccc(Cc2n[nH]c(=O)c3ccccc23)c1`: the Cli in data set [2] came to 4.9 ml min-1 g-1 liver.

For `CN1CC(=O)N(c2cc(Cc3nnc(O)c4ccccc34)ccc2F)C(=O)C1`, in data set [1], the PF50 was determined as 3.1.

Regarding `O=C1CCCC(=O)N1c1cc(Cc2n[nH]c(=O)c3ccccc23)ccc1F`, the PF50 in data set [1] came to 3.6.

Take `CCCC(=O)Nc1cccc(Cc2n[nH]c(=O)c3ccccc23)c1`: in data set [3], the concentration for half-maximal inhibition (IC50) was 0.09 µM.

`O=C(Nc1cccc(Cc2n[nH]c(=O)c3ccccc23)c1)c1ccc(-c2ccsc2)s1` yielded an IC50 in data set [3] of 0.056 µM.

`O=C1CCC(=O)N1c1cc(Cc2n[nH]c(=O)c3ccccc23)ccc1F` returned a Cli in data set [2] below 1 ml min-1 g-1 liver. The PF50 in data set [1] is reported as 5.62. This compound also returned an IC50 in data set [3] of 0.005 µM.

`CC(=O)Oc1cccc(Cc2n[nH]c(=O)c3ccccc23)c1` displayed an IC50 in data set [3] of 0.036 µM.

`O=C1CCC(=O)N1c1cc(Cc2n[nH]c(=O)c3ccccc23)ccc1Cl`: the PF50 in data set [1] amounted to 1.5.

Take `O=C1C2CC2C(=O)N1c1cc(Cc2nnc(O)c3ccccc23)ccc1F` (configuration not stated): the PF50 in data set [1] is reported as 14.4. The compound also registered an IC50 in data set [3] of 0.005 µM.

With `O=C1CC(c2ccccc2)C(=O)N1c1cc(Cc2n[nH]c(=O)c3ccccc23)ccc1F` (configuration not stated), in data set [1], the PF50 was determined as 5.4.

As to `CC1CC(=O)N(c2cc(Cc3n[nH]c(=O)c4ccccc34)ccc2F)C1=O` (configuration not stated), in data set [1], the PF50 is 18.2.
